This assay concerns purified m-OGT. The assay can be described thus: Km of UDP-GlcNAc in RBL-2 peptide O-GlcNAcylation on microarray. In kind it is biochemical, human. The following applies: fixed saturating RBL-2_410–422 peptide, purified m-OGT (0.2 μg/μL), UDP-GlcNAc 0–2 mM, Michaelis-Menten fit; read-out: Km of UDP-GlcNAc donor. On the procedure: One step OGT purification was performed using His60 Ni Gravity Flow Columns (Clontech) according to the manufacturer’s instructions. Briefly, the nickel column was equilibrated with a buffer containing 50 mM sodium phosphate, 300 sodium chloride, 20 mM imidazole, and pH 7.4, followed by incubation with cell lysate containing His tag OGT for 1h at 4°C. After washing several times using buffer containing 50 mM sodium phosphate, 300 sodium chloride, 40 mM imidazole, and pH 7.4, the recombinant OGT was eluted using elution buffer containing 50 mM sodium phosphate, 300 mM sodium chloride, 300 mM imidazole, and pH 7.4. […]
Peptide O-GlcNAcylation was assessed using PamChip 4 microarray chips with a PamStation 12 instrument (Pamgene international, The Netherlands). […] O-GlcNAcylation of each peptide was detected by a fluorescent signal which was produced by an FITC conjugated antibody bound to the O-GlcNAc moiety on the peptide.
Image analysis was performed using BioNavigator 6 software (Pamgene international, The Netherlands). Briefly, each image was quantified by automated array grid finding and subsequent quantification of signal and local background for each individual spot. In this work, the signal median-minus-background value was used as the quantitative parameter for the O-GlcNAcylation of the peptide. […]

The record followed here is PMC4784888, “Activity Based High-Throughput Screening for Novel O-GlcNAc Transferase Substrates Using a Dynamic Peptide Microarray” (PLoS ONE, 2016).

Molecules are shown by their SMILES. Where a name gives a salt, the structure may show the parent alone.

Broadly, the Km is the substrate concentration at which the rate is half of its maximum.

Turning to `CC(=O)N[C@H]1[C@@H](OP(=O)(O)OP(=O)(O)OC[C@H]2O[C@@H](n3ccc(=O)[nH]c3=O)[C@H](O)[C@@H]2O)O[C@H](CO)[C@@H](O)[C@@H]1O` [UDP-GlcNAc, Uridine 5′-diphospho-N-acetylglucosamine sodium salt], the Km was 24 µM.
